These results are taken from PubChem BioAssay (NCI).

Each structure is given as a SMILES string. Where “and” joins values, the source holds several entries; their conditions need not be identical. Identical values can stand only once.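 Protocol summary: plate cells (96-well), add compound at 5 concentrations, incubate 48 h, interpolate endpoints linearly. GI50: concentration for 50% inhibition of growth. Definition used: TGI = concentration required for complete inhibition of growth.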 Where a SMILES comes first, the peptide text is derived from it. [ ]: non-standard residue; d: D form. 2Nal = N[CH](Cc1ccc2ccccc2c1)C(=O)O

Among the test systems are A549 NSCLC; COLO 205 colon; K-562 leukemia; NCI-H226 lung; RPMI-8226 leukemia; SK-MEL-28 melanoma; SR leukemia; T-47D breast; U251 CNS; A498 renal.
What all share (test): NCI tumour cell line growth inhibition, 48 h

`CCOC(=O)c1c(C)c2c(n1C)CSc1cc(S(=O)(=O)c3ccccc3)c(=O)[nH]c1-2`: the GI50 in the experiment on A549 NSCLC was 30.2 µM; with COLO 205 colon it was 14.3 µM; with K-562 leukemia, 14.6 µM; in the experiment on NCI-H226 lung, 23.9 µM; in the experiment with RPMI-8226 leukemia, 14.8 µM; in the experiment on SK-MEL-28 melanoma, 37.2 µM. Also, the GI50 in the experiment on SR leukemia was 29.3 µM; in the experiment with T-47D breast, 10.5 µM; in the experiment on U251 CNS, 28.4 µM. Further, the TGI was greater than 100 µM with A549 NSCLC; 36.3 µM in the experiment with COLO 205 colon; greater than 100 µM with K-562 leukemia; greater than 100 µM with NCI-H226 lung; greater than 100 µM in the experiment on RPMI-8226 leukemia; greater than 100 µM with SK-MEL-28 melanoma. Further, the TGI in the experiment on SR leukemia is greater than 100 µM; in the experiment on T-47D breast, 74.7 µM; in the experiment on U251 CNS, greater than 100 µM.

As to `CCOC(=O)c1cc(C(=O)c2cc(OC)cc(OC)c2)n2ncccc12`, the GI50 in the experiment with A549 NSCLC was 11.1 µM; in the experiment with COLO 205 colon, 0.797 µM; with K-562 leukemia, 0.539 µM; in the experiment with NCI-H226 lung, greater than 100 µM; in the experiment on RPMI-8226 leukemia, 1.82 µM; with SK-MEL-28 melanoma, 7.36 µM. Further, the GI50 in the experiment on SR leukemia was 0.573 µM; with T-47D breast it was 17.2 µM; in the experiment with U251 CNS, 2 µM. Also, the TGI was greater than 100 µM in the experiment on A549 NSCLC; 75.5 µM in the experiment with COLO 205 colon; greater than 100 µM in the experiment with K-562 leukemia; greater than 100 µM in the experiment with NCI-H226 lung; greater than 100 µM in the experiment on RPMI-8226 leukemia; greater than 100 µM in the experiment with SK-MEL-28 melanoma. The TGI with SR leukemia, with T-47D breast and in the experiment on U251 CNS was greater than 100 µM each time.

Regarding `N#Cc1c(NC(=O)CCC(=O)O)ccc2ccccc12`, the TGI with A498 renal, in the experiment on A549 NSCLC, in the experiment with COLO 205 colon, in the experiment on K-562 leukemia, in the experiment with NCI-H226 lung and in the experiment with RPMI-8226 leukemia was greater than 100 µM throughout. Further, the TGI with SK-MEL-28 melanoma, in the experiment with T-47D breast and in the experiment on U251 CNS was greater than 100 µM each time.

Consider `COc1ccc(/C=N/NC(=O)O)cc1`, for which the TGI with A498 renal, in the experiment on A549 NSCLC, in the experiment with COLO 205 colon, in the experiment with K-562 leukemia, in the experiment with RPMI-8226 leukemia and with SK-MEL-28 melanoma was greater than 100 µM in each case. Besides, the TGI with SR leukemia, in the experiment on T-47D breast and with U251 CNS was greater than 100 µM throughout.

Regarding `COCCOC(C)C(/C=N/NC(N)=S)=N/NC(N)=S` (centres undefined), the GI50 is greater than 100 µM with A498 renal; greater than 100 µM in the experiment with A549 NSCLC; greater than 100 µM with COLO 205 colon; 0.0574 µM in the experiment with K-562 leukemia; greater than 100 µM in the experiment with NCI-H226 lung; 0.0725 µM with RPMI-8226 leukemia. The GI50 in the experiment on SK-MEL-28 melanoma and with U251 CNS was greater than 100 µM in each case. Moreover, the TGI in the experiment with A498 renal, with A549 NSCLC, in the experiment on COLO 205 colon, with K-562 leukemia, in the experiment on NCI-H226 lung and in the experiment on RPMI-8226 leukemia was greater than 100 µM in each case. Further, the TGI in the experiment with SK-MEL-28 melanoma, with T-47D breast and in the experiment on U251 CNS was greater than 100 µM throughout.

As to `C[C@]12CC[C@H]3[C@@H](C[C@@H]4SC(Nc5cccc(F)c5)=N[C@@]45CC(=O)CC[C@]35C)[C@@H]1CCC2=O`, the GI50 was 2.16 µM in the experiment on A498 renal; 2.58 µM in the experiment with A549 NSCLC; 2.16 µM in the experiment on COLO 205 colon; 2.35 µM in the experiment on NCI-H226 lung; 0.865 µM with RPMI-8226 leukemia; 1.52 µM in the experiment on SK-MEL-28 melanoma. Besides, the GI50 with T-47D breast is 2.22 µM; in the experiment with U251 CNS, 1.59 µM. For the same molecule, the TGI turned out to be 6.77 µM in the experiment with A498 renal; 7.5 µM with A549 NSCLC; 4.81 µM with COLO 205 colon; 5.7 µM in the experiment on NCI-H226 lung; 3.9 µM with RPMI-8226 leukemia; 4.27 µM in the experiment with SK-MEL-28 melanoma. Also, the results for the TGI in the experiment with T-47D breast and in the experiment with U251 CNS were 6.95 µM and 3.68 µM, respectively.

Turning to `COc1ccc2cc(C(=O)/C=C/c3ccc(OC)c(OC)c3)ccc2c1`, the GI50 is 4.29 µM in the experiment with A549 NSCLC; 30.7 µM in the experiment on COLO 205 colon; 5 µM with K-562 leukemia; 4.09 µM in the experiment on RPMI-8226 leukemia; 33.7 µM in the experiment with SK-MEL-28 melanoma; 2.04 µM in the experiment with SR leukemia. Also, the GI50 with T-47D breast was 43.4 µM; with U251 CNS, 11.8 µM. For the same molecule, the TGI in the experiment on A549 NSCLC was determined as 30.3 µM; with COLO 205 colon, 73.5 µM; in the experiment with K-562 leukemia, 94.9 µM; in the experiment with RPMI-8226 leukemia, 20.3 µM; in the experiment on SK-MEL-28 melanoma, 98.9 µM; with SR leukemia, 6.16 µM. In addition, the TGI in the experiment with T-47D breast is greater than 100 µM; with U251 CNS, 58.8 µM.

Consider `Cc1ccc(NC2=C(Cl)C(=O)c3nc(C)ccc3C2=O)cc1`, for which the GI50 is 0.0538 µM with A498 renal; 1.81 µM with A549 NSCLC; 1.93 µM with COLO 205 colon; 0.702 µM in the experiment with K-562 leukemia; 1.41 µM in the experiment with NCI-H226 lung; 1.41 µM with RPMI-8226 leukemia. The GI50 in the experiment on SK-MEL-28 melanoma is 1.93 µM; in the experiment on T-47D breast, 1.08 µM; in the experiment with U251 CNS, 1.31 µM. In addition, the TGI with A498 renal is 3.81 µM; in the experiment with A549 NSCLC it was 4.39 µM; with COLO 205 colon, 4.37 µM; with K-562 leukemia it was greater than 100 µM; with NCI-H226 lung it was 3.2 µM; with RPMI-8226 leukemia, 4.2 µM. The TGI is 3.43 µM with SK-MEL-28 melanoma, 3.3 µM with T-47D breast and 2.75 µM in the experiment on U251 CNS.

Consider `CSC(=S)NN=C1CCCCC1`, for which the TGI is greater than 100 µM with A498 renal; greater than 100 µM in the experiment with A549 NSCLC; greater than 100 µM with COLO 205 colon; 83.2 µM with K-562 leukemia; 42.4 µM in the experiment with NCI-H226 lung; 0.647 µM with RPMI-8226 leukemia. Moreover, the TGI with SK-MEL-28 melanoma, in the experiment on T-47D breast and in the experiment on U251 CNS was greater than 100 µM in each case.

For the molecule `CC(=O)N1c2ccccc2C23CCN4CC5=CCOC(O)C(C5CC42)C13` (centres undefined), the TGI in the experiment with A498 renal, in the experiment on A549 NSCLC, in the experiment on COLO 205 colon, with K-562 leukemia, with NCI-H226 lung and with RPMI-8226 leukemia was greater than 100 µM throughout. Besides, the TGI in the experiment with SK-MEL-28 melanoma, in the experiment on T-47D breast and in the experiment on U251 CNS was greater than 100 µM in each case.

As to `CC(NC(=O)C(N)Cc1ccccc1)C(=O)NC(Cc1ccc(O)cc1)C(=O)NC(Cc1c[nH]c2ccccc12)C(=O)NC(CCCCN)C(=O)NC(C(=O)NC(C)C(=O)NC(Cc1ccc2ccccc2c1)C(N)=O)C(C)C` (centres undefined) (H-FAYWKVA[2Nal]-NH2; configuration not given here), the GI50 with A498 renal was 19.4 µM; in the experiment with A549 NSCLC it was 20.7 µM; in the experiment on COLO 205 colon it was 27.1 µM; in the experiment on K-562 leukemia, 16.9 µM; in the experiment on RPMI-8226 leukemia, 16.3 µM; in the experiment with SK-MEL-28 melanoma, 53.4 µM. The GI50 in the experiment on U251 CNS was 25.1 µM. The TGI in the experiment on A498 renal was > 12.5 µM and 49.4 µM; in the experiment with A549 NSCLC, > 12.5 µM and 48.7 µM; in the experiment on COLO 205 colon, > 12.5 µM and 61.2 µM; in the experiment on K-562 leukemia it was > 12.5 µM and 30.5 µM; with NCI-H226 lung, greater than 12.5 µM; with RPMI-8226 leukemia it was > 12.5 µM and 30.4 µM. The TGI in the experiment on SK-MEL-28 melanoma is greater than 100 µM; with T-47D breast it was greater than 12.5 µM; in the experiment on U251 CNS it was > 12.5 µM and 67 µM.

On to `COc1cc2cc(C(=O)O)[nH]c2cc1OCc1ccccc1`, for which the GI50 with COLO 205 colon was greater than 100 µM; in the experiment on K-562 leukemia it was greater than 100 µM; in the experiment on NCI-H226 lung, greater than 100 µM; in the experiment on RPMI-8226 leukemia it was greater than 100 µM; with SK-MEL-28 melanoma it was 53.5 µM; with SR leukemia, greater than 100 µM. Moreover, the GI50 in the experiment on T-47D breast and with U251 CNS was greater than 100 µM in each case. For the same molecule, the TGI in the experiment on COLO 205 colon, in the experiment with K-562 leukemia, in the experiment with NCI-H226 lung, with RPMI-8226 leukemia, with SK-MEL-28 melanoma and in the experiment with SR leukemia was greater than 100 µM throughout. Also, the TGI in the experiment with T-47D breast and in the experiment on U251 CNS was greater than 100 µM in each case.

In the case of `O=C1/C(=C\c2ccccc2)c2ccccc2N1Cc1ccccc1`, the TGI in the experiment with A549 NSCLC was 22.5 µM; in the experiment on COLO 205 colon, 33.3 µM; with K-562 leukemia, greater than 31.3 µM; with NCI-H226 lung it was 35.6 µM; in the experiment on RPMI-8226 leukemia it was 9.28 µM; with SK-MEL-28 melanoma it was 15.7 µM. Moreover, the TGI in the experiment on SR leukemia is 9.66 µM; in the experiment with T-47D breast, 15.1 µM; in the experiment with U251 CNS, 15.2 µM.

With `COC(=O)/C(=C/N1CCN(C(=O)c2ccco2)C1=S)C(C)=O`, the GI50 in the experiment with A549 NSCLC is 19.3 µM; with COLO 205 colon, 12.6 µM; in the experiment on K-562 leukemia, 10.2 µM; with RPMI-8226 leukemia it was 5.49 µM; in the experiment with SK-MEL-28 melanoma, 9.08 µM; in the experiment on T-47D breast, 6.02 µM. Also, the GI50 with U251 CNS was 5.53 µM. Further, the TGI is 39.7 µM with A549 NSCLC; 35.8 µM in the experiment with COLO 205 colon; greater than 100 µM in the experiment on K-562 leukemia; greater than 100 µM with RPMI-8226 leukemia; 52.6 µM in the experiment on SK-MEL-28 melanoma; 29.8 µM with T-47D breast. In the experiment with U251 CNS, this molecule registered a TGI of 23.1 µM.
